Measurements published in patent US8920822B2, “Skin beautifier” (Megmilk Snow Brand Co., Ltd., priority 2004, dated 2014).

Tests used:
CD-1 (ICR)-nu/nu mice [1] = assay: Moisture content of the tail skin of nude mice after 4 weeks of oral feeding (Corneometer); format: in vivo, mouse; conditions: for increase of the moisture content of the skin: end vs start of administration; for Increase Rate of Moisture: value at end of feeding with start = 100
Method: (§1) Effects of the skin beautifier according to the present invention were investigated by an animal test using nude mice.
(§2) A sphingomyelin raw material (Phospholac 500; manufactured by NZMP) containing 10% of sphingomyelins was dissolved in deionized water as shown in Table 1. The solution was heated to 50° C. and then mixed under stirring with an ultradisperser (ULTRA-TURRAX T-25; manufactured by IKA Japan) at 9500 rpm for 20 minutes to prepare Test Feeds 1 to 3.
(§3) Five-week old CD-1 (ICR)-nu/nu mice were divided into the following 4 test groups (10 mice in each group), namely, (Group A) a group receiving 10 g of physiological saline per kg of mouse body weight, (Group B) a group receiving 10 g of the Test Feed 1 per kg of mouse body weight, (Group C) a group receiving 10 g of the Test Feed 2 per kg of mouse body weight, and (Group D) a group receiving 10 g of the Test Feed 3 per kg of mouse body weight. Mice in all the groups were fed by orally administering the feed once daily by gavage feeding for 4 weeks. Moisture contents and transepidermal water losses in the tail skin of each mouse were measured at the start and the end of the feeding. Values at the end of the feeding (rates of increase) were calculated by assuming each of the values at the start of the feeding to be 100. The moisture contents of the skin and the transepidermal water losses were measured using Corneometer and Tewameter, respectively, which were manufactured by Courage+Khazaka.

CD-1 (ICR)-nu/nu mice [2] = assay: Transepidermal water loss in the tail skin of nude mice after 4 weeks of oral feeding (Tewameter); format: in vivo, mouse; conditions: for Increase Rate of Transepidermal Water Loss: value at end of feeding with start = 100; for increase of the transepidermal water loss: after 4-week administration
Method: as §1, §2, §3

[3] = Group B, Test Feed 1, sphingomyelin 2 mg/kg orally once daily for 4 weeks
[4] = Group C, Test Feed 2, sphingomyelin 5 mg/kg orally once daily for 4 weeks
[5] = Group D, Test Feed 3, sphingomyelin 10 mg/kg orally once daily for 4 weeks
[6] = oral administration, nude mice, covers moisture content and TEWL

## sphingomyelin
CD-1 (ICR)-nu/nu mice [1]; Group B (printed Group 13), 2 mg/kg orally
  increase of the moisture content of the skin: about 1.5 times
CD-1 (ICR)-nu/nu mice [1]; [3]
  Increase Rate of Moisture: 155%
CD-1 (ICR)-nu/nu mice [1]; Group C, 5 mg/kg orally
  increase of the moisture content of the skin: about 2.5 times
CD-1 (ICR)-nu/nu mice [1]; [4]
  Increase Rate of Moisture: 245%
CD-1 (ICR)-nu/nu mice [1]; Group D, 10 mg/kg orally
  increase of the moisture content of the skin: about 2.5 times
CD-1 (ICR)-nu/nu mice [1]; [5]
  Increase Rate of Moisture: 253%
CD-1 (ICR)-nu/nu mice [1]; [6]
  dose at which the effects (skin moisture increased, transepidermal water loss decreased) were observed: ≥ 2 mg per kg of mouse body weight
  dose at which the effects (skin moisture increased, transepidermal water loss decreased) were significant: ≥ 5 mg per kg of mouse body weight
CD-1 (ICR)-nu/nu mice [2]; [3]
  Increase Rate of Transepidermal Water Loss: 152%
CD-1 (ICR)-nu/nu mice [2]; Group C, 5 mg/kg orally
  increase of the transepidermal water loss: about 1.4 times
CD-1 (ICR)-nu/nu mice [2]; [4]
  Increase Rate of Transepidermal Water Loss: 137%
CD-1 (ICR)-nu/nu mice [2]; Group D, 10 mg/kg orally
  increase of the transepidermal water loss: about 1.4 times
CD-1 (ICR)-nu/nu mice [2]; [5]
  Increase Rate of Transepidermal Water Loss: 140%
